Results as given in patent US5863889A, “ICAM-1/LFA-1 short-chain peptides and method of using same” (The University of Kansas, priority 1996, dated 1999).
Where two headings read alike, the source gives them in different places.

How the values were obtained:
LFA-1 (CD11a) = molecular target: T1, LFA-1 (CD11a) (Homo sapiens, UniProt P20701); test: Antibody binding assay (FACS): anti-LFA-1 mAb (mouse IgG anti-human CD11a) binding to Molt3 T-cells after peptide incubation; type: cell-based; conditions: for Fluorescence, % change from control of the medium fluorescence intensity: mAb CD11a, average ± standard error of runs
T1 construct: host or cells: Molt3 human T-cell leukemia line
T1 sequence (P20701 26-1170): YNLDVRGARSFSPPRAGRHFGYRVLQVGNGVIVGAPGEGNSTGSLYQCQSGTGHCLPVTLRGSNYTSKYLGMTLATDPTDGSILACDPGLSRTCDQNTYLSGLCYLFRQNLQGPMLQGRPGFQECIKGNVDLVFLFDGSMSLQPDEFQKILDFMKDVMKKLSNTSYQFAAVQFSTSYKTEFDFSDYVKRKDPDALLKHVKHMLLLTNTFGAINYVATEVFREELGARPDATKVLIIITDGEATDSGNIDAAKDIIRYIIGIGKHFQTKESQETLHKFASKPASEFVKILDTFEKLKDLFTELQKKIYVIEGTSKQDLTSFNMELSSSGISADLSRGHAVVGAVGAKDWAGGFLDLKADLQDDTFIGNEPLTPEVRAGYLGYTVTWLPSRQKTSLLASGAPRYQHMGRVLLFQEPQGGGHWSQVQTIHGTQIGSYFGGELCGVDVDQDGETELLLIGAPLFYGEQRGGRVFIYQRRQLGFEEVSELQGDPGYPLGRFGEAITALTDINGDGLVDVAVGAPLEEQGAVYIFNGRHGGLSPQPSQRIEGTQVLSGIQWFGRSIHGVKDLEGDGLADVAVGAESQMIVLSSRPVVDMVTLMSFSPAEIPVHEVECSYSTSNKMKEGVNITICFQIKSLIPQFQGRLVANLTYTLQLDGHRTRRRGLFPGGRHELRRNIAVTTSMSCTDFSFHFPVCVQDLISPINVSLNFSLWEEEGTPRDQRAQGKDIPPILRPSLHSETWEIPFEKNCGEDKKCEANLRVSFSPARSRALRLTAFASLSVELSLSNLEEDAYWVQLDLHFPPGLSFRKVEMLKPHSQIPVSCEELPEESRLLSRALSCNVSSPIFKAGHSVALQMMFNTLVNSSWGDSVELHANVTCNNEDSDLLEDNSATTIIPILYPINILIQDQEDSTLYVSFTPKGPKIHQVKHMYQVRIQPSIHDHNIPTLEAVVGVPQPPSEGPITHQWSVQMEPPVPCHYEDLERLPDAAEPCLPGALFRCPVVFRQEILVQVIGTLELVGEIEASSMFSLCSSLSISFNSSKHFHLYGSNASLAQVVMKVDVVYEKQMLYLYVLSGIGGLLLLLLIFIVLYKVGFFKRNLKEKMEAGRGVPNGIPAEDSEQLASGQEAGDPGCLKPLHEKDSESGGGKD
T1 sequence (P05107 23-769 partner): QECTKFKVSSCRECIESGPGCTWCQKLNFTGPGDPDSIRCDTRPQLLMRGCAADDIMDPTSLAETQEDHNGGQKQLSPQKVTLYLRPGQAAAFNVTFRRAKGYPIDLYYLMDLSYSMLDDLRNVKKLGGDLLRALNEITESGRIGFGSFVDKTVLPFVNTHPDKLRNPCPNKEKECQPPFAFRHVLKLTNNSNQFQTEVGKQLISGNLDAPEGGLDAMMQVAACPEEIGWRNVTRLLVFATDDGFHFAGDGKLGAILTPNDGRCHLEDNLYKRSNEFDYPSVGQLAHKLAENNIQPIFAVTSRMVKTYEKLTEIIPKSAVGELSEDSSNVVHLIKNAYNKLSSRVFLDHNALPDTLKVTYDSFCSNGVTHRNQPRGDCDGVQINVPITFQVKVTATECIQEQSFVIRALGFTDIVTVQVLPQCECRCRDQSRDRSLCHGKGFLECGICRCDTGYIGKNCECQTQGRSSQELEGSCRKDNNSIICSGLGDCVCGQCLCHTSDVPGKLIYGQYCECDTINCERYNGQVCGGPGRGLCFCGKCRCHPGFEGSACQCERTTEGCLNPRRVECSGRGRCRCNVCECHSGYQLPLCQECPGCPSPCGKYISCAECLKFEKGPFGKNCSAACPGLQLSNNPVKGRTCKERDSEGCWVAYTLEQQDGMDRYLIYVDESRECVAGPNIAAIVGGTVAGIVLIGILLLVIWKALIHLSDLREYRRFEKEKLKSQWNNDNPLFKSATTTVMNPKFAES
Description: A 1 ml quantity of the Molt3 inoculum was warmed to 37° C. and transferred by pipette into about 25 ml of a growth culture medium including RPMI 1640 lymphocyte growth medium (Fisher Scientific of St. Louis, Miss.) mixed with 10% by volume fetal calf serum, 100 units/ml penicillin, 100 μg/ml streptomycin and 2 mM glutamine. The inoculated culture was incubated for three to four days at 37° C. under a normal atmosphere having about 5% CO2 added thereto. This culture was capable of being maintained indefinitely by siphoning away the top (non-cell containing) layer and adding 50 ml (or more) of growth culture medium at intervals of three to four days.
An aqueous buffer solution including Dulbecco's phosphate buffered saline and bovine serum albumin ("-PBS/BSA solution") was prepared for use, and included a mixture of 200 mg KH2 PO4, 1.15 g Na2 HPO4, 100 mg CaCl2, 200 mg KCl, 100 mg MgCl2.6H2 O, 8 g NaCl, with distilled water added to a final 1 liter volume at room temperature, thus, forming a "PBS" solution of pH 7.4 to which was added 0.5% by weight bovine serum albumin.
An aliquot of about 7 ml was removed from the incubated culture medium and subjected to washing with the PBS/BSA solution. The washing procedure was initiated by placing the aliquot in a centrifuge (Model GT422 from Jouan, distributed Piruscio & Assoc. of Manchester, Miss.) at 1400 rpm for 6.5 minutes to separate the cells from the growth medium. The supernatant fluid was decanted, a 5 ml portion of PBS/BSA solution was transferred by pipette into the pellet, and the mixture was again centrifuged as before. The resulting supernatant fluid was decanted and the cells from the pellet were resuspended in PBS/BSA solution at a titer of about 1×10^6 cells/ml. A 500 μl portion of the solution containing the resuspended cells was placed in a microcentrifuge (Marathon 13K/M from Fisher Scientific of St. Louis, Miss.) at 3500 rpm for six minutes, to provide a washed pellet.
[…] The cells were incubated with the peptide cocktail at 37° C. for 45 minutes.
After incubation with the peptide cocktail, several antibodies were successively mixed into the incubated solution. A 75 μl portion of anti-IgM solution (a mixture of 10 μl of goat anti-human IgM stock purchased from Jackson Immuno Research of Westgrove, Pa.; and 65 μl of PBS/BSA solution) was added to the peptide cocktail for blocking of nonspecific binding of the secondary antibody. The resulting mixture was incubated for 10 minutes on ice. About 0.1 μg of a primary antibody including mouse IgG anti-human CD11a (purified according to conventional protocols at the University of Kansas Department of Pharmacology and Toxicology from an American Type Culture hybridoma cell line having Catalogue Number HB-202) was next stirred into the mixture, which was then incubated for 30 minutes at room temperature. The incubated mixture was placed in a microcentrifuge at 3500 rpm for six minutes to remove the cells from the mixture, and the cell pellet was washed two times by adding 500 μl aliquots of PBS/BSA solution and microfuging to remove non-bound antibodies from the cells as before. The resulting washed pellet was resuspended in 100 μl of a secondary antibody cocktail including 5 μl of fluorescein isothiocyanate ("FITC") labeled goat anti-mouse IgG (from CALTAG of South San Francisco, Calif.) and 95 μl of PBS/BSA solution. The resulting solution was incubated for 30 minutes at room temperature in the dark.
The incubated solution including the secondary antibody cocktail was microfuged at 3500 rpm for six minutes to remove the cells from the solution, and the cell pellet was washed two times with 500 μl portions of PBS/BSA solution, as before, to remove unbound antibodies. […]

Molt3 cells [1] = test: Homotypic adhesion assay (MDHC-induced clumping of T-cells); type: cell-based, human; parameters: key to Homotypic Adhesion Amount: Any sample having a score of "+++" or "++++" is considered to have a significant ability to modulate T-cell binding interaction; Any sample having a score of "+++" or "++++" is considered to have a significant ability to modulate T-cell binding interaction; conditions: 10 μM MDHC
Description: As before, the T-cells were Molt3 cells prepared in RPMI 1640 growth medium according to Example 2. An approximate 7 ml aliquot of the growth medium was centrifuged (Jouan Model GT422 at 1400 rpm for 6.5 minutes), and the supernatant fluid was decanted. The pellet was resuspended in the supernatant fluid at titer of about 1×10^6 cells/ml, with the excess supernatant fluid being retained for future resuspension of the peptides.
A 228 nmol quantity of the LJCRF-1 (Sequence ID No. 6) peptide described in Table 1 was diluted with the supernatant fluid to a 500 μl final volume, and filtered in microcentrifuge filter tubes (0.22 micron filter; 3500 rpm for 6 minutes). Serial dilution of the filtered peptide with supernatant fluid was conducted to yield five 125 μl peptide solutions to give respective concentrations of about 115 μM, 230 μM, 460 μM, 910 μM, and 1.82 mM. At each concentration, a 125 μl portion of the cell suspension was pipetted into each 125 μl portion of the peptide solutions to yield combined samples having a 250 μl volume. The 250 μl samples were seeded into individual wells in a 48-well tissue culture grade plate (from Costar of Cambridge, Md.) and incubated at 37° C. for 30 minutes. Each sample received 5 μl of 2,5-methyl dihydroxy cinnamate ("MDHC") for a 10 μM final concentration, and was subsequently incubated for about 10 hours at 37° C. MDHC induces intercellular clumping of human T-cells (Tibbetts, Butler, and Benedict, submitted) by activating the LFA/ICAM binding interaction between respective cells.
Pictures were taken of five random fields per sample using an Olympus photomicroscope having a 0.8 mm field at 400×magnification, and a 3.2 mm field of view at 100×magnification. The amount of clumping observed was quantified by determining the mean number of clumps per field ± a standard error.
FIGS. 5, 6, and 7 replicate photographs taken from exemplary peptide assays. FIG. 5 is a photograph of the control sample having no peptides and no MDHC added, from which essentially no clumping of cells is observed. […] Any sample having a score of "+++" or "++++" is considered to have a significant ability to modulate T-cell binding interaction. This is similar to results obtained by incubating similarly treated cells with antibody against either LFA or ICAM.
The homotypic adhesion assay assesses the actual ability of a candidate peptide to modulate the ability of T-cells to adhere with one another.

Molt3 cells [2] = test: Cell metabolic assay (MTT); type: cell-based
Description: After taking the photographs in Example 3 (and in some instances no photographs were taken), cell metabolic activity was assessed by an MTT assay. A 37.5 μl portion of MTT dye (purchased from SIGMA of St. Louis, Mo.), i.e., 3-[4,5-dimethyl thiazole-2yl]-2, 5- diphenyl tetrazolium bromide; thiazolyl blue) was added to each well, and incubated with the cells at 37° C. for about six hours. After incubation, a 250 μl quantity of a MTT solubilization solution (of a type that may be purchased from either Fischer Scientific of St. Louis, Mo. or BCD Labs of Lawrence, Kans.) was added to each well, and incubated with the cells at room temperature overnight. In the morning, the spectrophotometric absorption of each plate was determined at 570 nm in a microplate ELISA reader manufactured by Cambridge Technologies of Water-town, Mass., in order to assess cell viability as an indicator of potential peptide toxicity.

ICAM-1 (CD54) = molecular target: T2, ICAM-1 (CD54) (Homo sapiens, UniProt P05362); test: Antibody binding assay (FACS): anti-ICAM-1 mAb (mouse IgG anti-human CD54) binding to Molt3 T-cells after peptide incubation; type: cell-based; conditions: mAb CD54; peptide 4550 μM; average ± standard error of runs
T2 construct: host or cells: Molt3 human T-cell leukemia line
T2 sequence (P05362 28-532): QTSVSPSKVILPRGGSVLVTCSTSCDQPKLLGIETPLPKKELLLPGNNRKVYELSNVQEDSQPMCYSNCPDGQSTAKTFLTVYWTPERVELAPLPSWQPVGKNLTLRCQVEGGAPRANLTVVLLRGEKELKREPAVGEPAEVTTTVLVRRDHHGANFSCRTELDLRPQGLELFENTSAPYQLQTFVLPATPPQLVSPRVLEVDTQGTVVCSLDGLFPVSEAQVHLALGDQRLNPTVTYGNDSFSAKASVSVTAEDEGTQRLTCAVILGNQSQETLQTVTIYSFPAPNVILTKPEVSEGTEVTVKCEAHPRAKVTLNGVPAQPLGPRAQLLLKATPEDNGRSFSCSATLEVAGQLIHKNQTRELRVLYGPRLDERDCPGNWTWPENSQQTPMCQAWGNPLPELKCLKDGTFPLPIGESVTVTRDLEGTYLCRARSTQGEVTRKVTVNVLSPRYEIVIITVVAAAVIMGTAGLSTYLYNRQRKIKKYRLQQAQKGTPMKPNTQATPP

[3] = peptide 4550 μM, negative = blocking

Row | Substance | Fluorescence, % change from control of the medium fluorescence intensity (LFA-1 (CD11a); [3]) [%] | Homotypic Adhesion Amount (Molt3 cells [1]; peptide 460 μM) | Homotypic Adhesion Effect (Molt3 cells [1]; peptide 460 μM) | Homotypic Adhesion Effect (Molt3 cells [1]; peptide 910 μM) | Homotypic Adhesion Amount (Molt3 cells [1]; peptide 1820 μM) | Homotypic Adhesion Effect (Molt3 cells [1]; peptide 1820 μM) | MTT % Viability (Molt3 cells [2]; peptide 460 μM) [%] | MTT % Viability (Molt3 cells [2]; peptide 910 μM) [%] | MTT % Viability (Molt3 cells [2]; peptide 1820 μM) [%] | Fluorescence, % change from control of the medium fluorescence intensity (ICAM-1 (CD54)) [%] | Homotypic Adhesion Effect (Molt3 cells [1]; peptide 115 μM) | Homotypic Adhesion Effect (Molt3 cells [1]; peptide 230 μM) | Homotypic Adhesion Amount (Molt3 cells [1]; peptide 910 μM) | MTT % Viability (Molt3 cells [2]; peptide 115 μM) [%] | MTT % Viability (Molt3 cells [2]; peptide 230 μM) [%] | other results
1 | LJCRF-1: ICAM-1 based short-chain peptide, Sequence ID No. 6 (QTSVSPSKVILPRGGSVLVTG) | -29 ± 3 | +++ | Block | Block | +++ | Block | 93 | 92 | 66 |  |  |  |  |  |  | Fluorescence, % change from control of the medium fluorescence intensity (LFA-1 (CD11a); peptide 2275 μM): -12 ± 2%; blocking efficiency (LFA-1 (CD11a); single above-average run (FIGS. 2, 3), peptide 4550 μM, anti-CD11a): 65%
2 | LJCRF-3: ICAM-1 derived short-chain peptide, Sequence ID No. 12 (KELLLPGNNRKVYELSNVQEDSQP) | -13 ± 19 |  |  |  |  |  |  |  |  |  |  |  |  |  |  | MTT % Viability (Molt3 cells [2]): 38%
3 | LJCRF-5: LFA-1α derived short-chain peptide, Sequence ID No. 17 (GVDVDQDGETELIGAPLFYGEQRG) |  |  | Block | Block | ++++ | Block | 81 | 52 | 20 | -17 | Block | Block | ++++ | 95 | 84 | metabolic activity by MTT (Molt3 cells [2]; peptide 1820 μM): decrease in metabolic activity
4 | LJCRF-6: LFA-1α (insert) based short-chain peptide, Sequence ID No. 18 (ITDGEATDSGNIDAAKDIIYIIGI) |  |  |  | almost total inhibition | +++ | Block |  |  |  | -4 |  |  |  |  |  | 
5 | MC-1-80: ICAM-1 derived short-chain peptide, Sequence ID No. 9 (LPRGGSVLVTG) |  |  |  |  |  |  |  |  |  |  |  |  |  |  |  | metabolic activity / cellular respiration by MTT (Molt3 cells [2]; peptide 910 μM): enhanced
6 | SC-3-223: LFA-1β derived peptide, identical to LJCRF-4 (Sequence ID No. 16), tested separately (DLSYSLDDLRNVKKLGGDLLRALNE) |  | +++ | Block | Block | ++++ | Block | 112 | 108 | 75 |  | Block | Block | ++++ | 103 | 109 | Homotypic Adhesion Amount (Molt3 cells [1]; peptide 230 μM): +++
